Reference: patent publication US9314540B2, “Compounds for use in imaging, diagnosing and/or treatment of diseases of the central nervous system” (PIRAMAL IMAGING SA, priority 2010, dated 2016)

What was measured:
[1] = target: T1, MAO-A (Homo sapiens, UniProt P21397); experiment: Amplex Red Monoamine Oxidase Assay-Kit, MAO-A affinity; type: biochemical; conditions: read-out: affinity towards MAO-A
T1 sequence (P21397 1-527): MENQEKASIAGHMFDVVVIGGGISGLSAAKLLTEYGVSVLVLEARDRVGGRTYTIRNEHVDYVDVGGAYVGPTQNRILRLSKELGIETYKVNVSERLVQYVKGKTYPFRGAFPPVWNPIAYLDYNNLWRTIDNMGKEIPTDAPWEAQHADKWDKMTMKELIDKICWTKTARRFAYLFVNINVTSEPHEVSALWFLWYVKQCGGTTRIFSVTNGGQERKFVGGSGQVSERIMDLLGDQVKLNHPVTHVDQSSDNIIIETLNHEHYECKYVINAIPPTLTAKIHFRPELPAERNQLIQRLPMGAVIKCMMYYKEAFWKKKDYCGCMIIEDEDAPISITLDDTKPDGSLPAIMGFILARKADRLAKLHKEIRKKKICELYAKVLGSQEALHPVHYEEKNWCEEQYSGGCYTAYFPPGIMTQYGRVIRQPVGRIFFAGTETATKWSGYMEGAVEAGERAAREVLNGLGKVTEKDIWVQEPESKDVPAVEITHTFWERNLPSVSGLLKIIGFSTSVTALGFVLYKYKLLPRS

[2] = target: T2, human MAO-B (Homo sapiens, UniProt P27338); experiment: Amplex Red Monoamine Oxidase Assay-Kit, MAO-B affinity; type: biochemical; conditions: human MAO-B from baculovirus-infected insect cells; read-out: affinity towards MAO-B, IC50
T2 construct: purchased Sigma; host or cells: insect cells infected with recombinant baculovirus
T2 sequence (P27338 1-520): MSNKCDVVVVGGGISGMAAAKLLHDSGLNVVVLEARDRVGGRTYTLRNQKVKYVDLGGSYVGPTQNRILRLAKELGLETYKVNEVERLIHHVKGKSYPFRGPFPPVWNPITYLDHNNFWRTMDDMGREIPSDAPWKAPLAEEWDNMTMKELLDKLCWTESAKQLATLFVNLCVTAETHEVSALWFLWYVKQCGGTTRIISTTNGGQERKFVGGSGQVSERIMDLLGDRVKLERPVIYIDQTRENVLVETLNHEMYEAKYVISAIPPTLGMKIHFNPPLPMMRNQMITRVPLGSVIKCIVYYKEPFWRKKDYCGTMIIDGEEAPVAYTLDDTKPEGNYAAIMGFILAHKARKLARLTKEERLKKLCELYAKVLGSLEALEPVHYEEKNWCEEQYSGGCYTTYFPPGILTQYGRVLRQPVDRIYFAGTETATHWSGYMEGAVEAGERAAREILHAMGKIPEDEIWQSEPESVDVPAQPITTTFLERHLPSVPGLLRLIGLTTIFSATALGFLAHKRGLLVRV
Protocol: [^19F] […] This was determined by incubating human MAO-B prepared from insect cells infected with recombinant baculovirus containing respective cDNA inserts (Sigma) with respective reagents of the Amplex Red Monoamine Oxidase Assay-Kit (Molecular Probes).

[3] = In vitro metabolite profile in liver microsomes and hepatocytes (LC/MS); type: in vitro ADME, rat, mouse and human; conditions: for oxidation at the propargyl moiety (M-7) as additional metabolic pathway: microsome and hepatocyte incubations; for major metabolic pathway: rat, mouse and human liver microsomes, human and rat hepatocytes
Excerpt: FIG. 9: In vitro metabolite pathways in rat, mouse, dog, monkey and human microsomes and rat and human heaptocyte preparations. The metabolites were detected by LC/MS. (a) Metabolite pathways of non-deuterated [^18F] Deprenyl and (b) Metabolite pathways of [^18F] D2 Deprenyl.
[^18F] D2 Deprenyl and [^19F] D2 Deprenyl have been investigated regarding their metabolic properties in vitro and in vivo. […] D2 Deprenyl (FIG. 9).

[4] = Biodistribution in NMRI mice, brain radioactivity by gamma counter; type: in vivo; conditions: for brain uptake of radioactivity (peak): 2 min p.i.
Protocol: FIG. 1: Distribution of [^18F] D2 Deprenyl (compound of Example 3) detected via a gamma-detector is shown in a time frame of 4 hours in mouse brains (n=3).
Biodistribution of [^18F] D2 Deprenyl (compound of Example 3) was investigated in NMRI mice weighing 31.1-38.5 g at seven time points. For each time point 3 mice were used. The mice were injected each with 0.256 MBq [^18F] D2 Deprenyl. After the respective time points the mice were sacrificed, the organs taken out and measured in a gamma counter. The results were decay corrected. […] Unexpectedly, the elimination ratio defined by peak uptake at 2 min to uptake at 30 min was 4.2 times. This is improved over the non-deuterated compound where said ratio was 3.6 (Peak: 7.5±0.04% ID/g at 2 min p.i. and 2.10±0.33% ID/g at 30 min p.i.) and will add to a better brain image quality. Therefore, an improved diagnostic performance can be expected.

[5] = Plasma radioactivity and metabolite profile over time in cynomolgus monkey plasma; type: in vivo
Excerpt: D2 Deprenyl and non-deuterated [^18F] Deprenyl in cynomolgus monkey plasma.
D2 Deprenyl and (b) non-deuterated [^18F] Deprenyl in cynomolgus monkey plasma. The time course of the parent compounds as well as metabolites expressed in [area %] generated from respective HPLC chromatograms are shown.
Plasma radioactivity metabolic profiles have been monitored over time for [^18F] D2 Deprenyl compared to the non-deuterated [^18F] Deprenyl in cynomolgus monkey plasma (FIG. 3). […] D2 Deprenyl in plasma the radioactivity for [^18F] D2 Deprenyl was 18% and 31% higher as observed for [^18F] Deprenyl at the 30 and 60 min time points, respectively (FIG. 3). In addition, metabolites occurring in cynomolgus monkey plasma over time have been monitored for both ligands (FIG. 4). […] Deprenyl. Specifically metabolite M1 was less produced (FIG. 4a). In addition, time activity curves (TAC) of [^18F] […] This gives more flexibility regarding quantification of the PET data and is, thus, an advantage.

| SMILES | IC50 [1] [nM] | IC50 [2] [nM] | oxidation at the propargyl moiety (M-7) as additional metabolic pathway [3] | major metabolic pathway [3] | elimination ratio, peak uptake at 2 min to uptake at 30 min [4] | brain uptake of radioactivity (peak) [4] [% ID/g] | brain radioactivity ([4]; 30 min p.i.) [% ID/g] | brain radioactivity ([4]; 4 hours p.i.) [% ID/g] | formation of metabolite M1 compared to non-deuterated [18F] Deprenyl [5] | stability in plasma compared to non-deuterated [18F] Deprenyl [5] | plasma radioactivity higher than for [18F] Deprenyl ([5]; 30 min) [%] | plasma radioactivity higher than for [18F] Deprenyl ([5]; 60 min) [%] |
| --- | --- | --- | --- | --- | --- | --- | --- | --- | --- | --- | --- | --- |
| [2H]C([2H])(C#C)N(C)[C@H](CF)Cc1ccccc1 [[^19F] D2 Deprenyl, N-[(2S)-1-fluoro-3-phenylpropan-2-yl]-N-methyl(1,1-^2H)prop-2-yn-1-amine] | > 2000 | 41.3 | not detectable any more | N-dealkylation |  |  |  |  |  |  |  |  |
| [2H]C([2H])(C#C)N(C)[C@H](CF)Cc1ccccc1 [[^18F] D2 Deprenyl, N-[(2S)-1-[^18F]fluoro-3-phenylpropan-2-yl]-N-methyl(1,1-^2H2)— prop-2-yn-1-amine] |  |  |  |  | 4.2 | 6.03±1.09 | 1.44±0.15 | 0.91±0.09 | less produced | more stable | 18 | 31 |
| C#CCN(C)[C@H](C[18F])Cc1ccccc1 [non-deuterated compound, reference compound] |  |  | observed | N-dealkylation | 3.6 | 7.5±0.04 | 2.10±0.33 |  |  |  |  |  |
